Measured values taken from ChEMBL document CHEMBL1158284, “Biological activities of the nortropane alkaloid, calystegine B2, and analogs: structure-function relationships” (J Nat Prod, 1996).
The source made the active and inactive calls. The rule behind the calls is not given here.

Experiments:
Prunus dulcis [1] = experiment: (§1) Inhibition of almond beta-glucosidase
Aspergillus niger [2] = experiment: (§2) Inhibition of Aspergillus niger alpha-galactosidase
Prunus dulcis [3] = experiment: Inhibition of almond beta-glucosidase at 0.5 mg/mL
Aspergillus niger [4] = experiment: Inhibition of Aspergillus niger alpha-galactosidase 1.0 mg/mL
Sinorhizobium meliloti [5] = experiment: Antibacterial activity against Cac gene-deficient Rhizobium meliloti GMI13; format: functional, organism-based
Sinorhizobium meliloti [6] = experiment: Antibacterial activity against Cac gene-deficient Rhizobium meliloti RCR2011; format: functional, organism-based
[7] = tested on: Agrobacterium tumefaciens; experiment: Antibacterial activity against Cac gene-deficient Agrobacterium tumefaciens C58C1; format: functional, organism-based
Agrobacterium rhizogenes = experiment: Antibacterial activity against Cac gene-deficient Agrobacterium rhizogenes HRI; format: functional, organism-based
Medicago sativa [8] = experiment: Allellopathic effect in Medicago sativa assessed as inhibition of seed germination up to 10 mM; format: functional, organism-based
Medicago sativa [9] = experiment: Allellopathic effect in Medicago sativa assessed as reduction in root elongation at 5 mM after 19 hrs; format: functional; design: scale not given: the % may be the effect or the level left
Medicago sativa [10] = experiment: Allellopathic effect in Medicago sativa assessed as reduction in root elongation at 10 mM after 19 hrs; format: functional; design: scale not given: the % may be the effect or the level left
Medicago sativa [11] = experiment: Allellopathic effect in Medicago sativa assessed as reduction in root elongation at 5 mM after 43 hrs; format: functional; design: scale not given: the % may be the effect or the level left
Medicago sativa [12] = experiment: Allellopathic effect in Medicago sativa assessed as reduction in root elongation at 10 mM after 43 hrs; format: functional; design: scale not given: the % may be the effect or the level left
[13] = as §1; design: species or system Prunus dulcis
[14] = as §2
Sinorhizobium meliloti [15] = experiment: Induction of Cac gene-expressing Rhizobium meliloti 41 growth; format: functional, organism-based
Medicago sativa [16] = experiment: Allellopathic effect in Medicago sativa assessed as inhibition of seed germination at 5 mM; format: functional

Row | Compound | Activity (Prunus dulcis [1]) | Activity (Aspergillus niger [2]) | Activity (Prunus dulcis [3]) | Activity (Aspergillus niger [4]) | Activity (Sinorhizobium meliloti [5]) | Activity (Sinorhizobium meliloti [6]) | Activity [7] | Activity (Agrobacterium rhizogenes) | Activity (Medicago sativa [8]) | Activity (Medicago sativa [9]) [%] | Activity (Medicago sativa [10]) [%] | Activity (Medicago sativa [11]) [%] | Activity (Medicago sativa [12]) [%] | Ki [13] [µM] | Ki [14] [µM] | Activity (Sinorhizobium meliloti [15]) | inhibition at 5000 µM (Medicago sativa [16]) [%]
1 | CN1[C@@H]2CC[C@@]1(O)[C@@H](O)[C@H](O)[C@H]2O | inactive | Active |  |  |  |  |  |  |  |  |  |  |  |  |  |  | 
2 | O[C@H]1[C@H](O)[C@H](O)[C@@]2(O)CC[C@@H]1N2 |  |  | inactive | inactive | inactive | inactive | inactive | inactive | inactive | 20 | 25 | 8 | 18 |  |  |  | 
3 | O[C@@H]1[C@@H](O)[C@H](O)[C@]2(O)CC[C@H]1N2 [CALYSTEGINE B2] |  |  |  |  | inactive | inactive | inactive | inactive |  | 37 | 46 | 12 | 40 | 4 | 7 | Active | 50
